pIC50: −log10 of the molar value.

The subject of the test is NFκB and AP-1. As to the kind of experiment: NFκB and AP-1 luciferase reporter assays in stable Jurkat T-cells (PMA/PHA stimulated). As to conditions: Homo sapiens, average of NFκB and AP-1 assays, read-out: ICm (average of the measurements obtained from the NFκB and AP-1 assays). Format: cell-based, human. The text has this: Stable human Jurkat T-cells containing an NFκB binding site (from the MHC promoter) fused to a minimal SV-40 promoter driving luciferase expression were used in this experiment. Cells were split to 3×10^5 cells/mL every 2-3 days (cell concentration should not exceed 1×10^6 cells/mL to keep the cells proliferating in log phase). These cells were counted, resuspended in fresh medium containing 10% Serum-Plus at a density of 1×10^6 cells/mL and plated in 96 well round bottom plates (200 μ.LAMBDA. per well) 18 hours prior to starting the experiment.
Compounds of this invention, dissolved in dimethyl sulfoxide (3.3, 0.33 and 0.03 μg/mL), were then added to the 96 well plates containing the cells and the plates were incubated for 0.5 h at 37° C. Then 50 ng/mL of phorbol 12-myristate-13-acetate (PMA) and 1 μg/mL of phytohemagglutinin (PHA) were added to each well and the cells were incubated for an additional 5 h at 37° C. The plates were centrifuged at 2200 RPM for 3 minutes at room temperature and then the medium was removed. To each well was added 60 μL of cell lysis buffer and the plates were left at room temperature for 0.25 h. Then 40 μL of each cell extract was transferred to a black 96 well plate and 50 μL of luciferase substrate buffer was added. Luminescence was immediately measured using a Packard TopCount.
For AP-1, the assay was run as described above for NFκB except stable Jurkat T-cells were used that contained a collagenase promoter driving luciferase expression. In addition, the concentration of PMA used was 5 ng/mL.
The IC50 values reported in Table 3 are the average of the measurements obtained from the NFκB and AP-1 assays described above.
A general note: Reporter assays use an easily measured gene product as a stand-in for the process of interest.
Consider `CCCC(=O)c1cnc(N(C)N2C(=O)C=C(C)C2=O)nc1CC` [Example 107, 5-BUTANOYL 2-[N-(1'-AMINOCITRACONAMIDO-N-METHYL)]-4-ETHYLPYRIMIDINE], for which the pIC50 is 6.30.

With `CCOC(=O)c1cnc(NN2C(=O)C=C(C)C2=O)nc1C1CC1` [Example 108, ETHYL 2-[N-(1'-AMINOCITRACONAMIDO)]-4-CYCLOPROPYLPYRIMIDINE-5-CARBOXYLATE], the pIC50 was 5.82.

As for `CCOC(=O)c1cnc(N(C)N2C(=O)C=C(C)C2=O)nc1C1CC1` [Example 109, ETHYL 2-[N-(1'-AMINOCITRACONAMIDO-N-METHYL)]-4-CYCLOPROPYLPYRIMIDINE-5-CARBOXYLATE], the pIC50 is 6.70.

With `CCc1nc(N(C)N2C(=O)C=C(C)C2=O)ncc1CO` [Example 111, 2-[N-(1'-AMINOCITRACONAMIDO)-N-METHYL]-4-ETHYL-5-(HYDROXYMETHYL)PYRIMIDINE], the pIC50 is 5.31.

Turning to `CCc1nc(N(C)N2C(=O)C=C(C)C2=O)ncc1COC` [Example 112, 2-[N-(1'-AMINOCITRACONAMIDO)-N-METHYL]-4-ETHYL-5-(METHOXYMETHYL)PYRIMIDINE], the pIC50 is 6.22.

In the case of `COCc1cnc(NN2C(=O)C=C(C)C2=O)nc1C(F)(F)F` [Example 113, 2-[N-(1'-AMINOCITRACONAMIDO)]-5-(METHOXYMETHYL)-4-TRIFLUOROMETHYLPYRIMIDINE], the pIC50 was 6.00.

Turning to `CCOC(=O)OCc1cnc(NN2C(=O)C=C(C)C2=O)nc1C(F)(F)F` [Example 114, 2-[N-(1'-AMINOCITRACONAMIDO)]-5-(ETHOXYMETHYLCARBONATE)-4-TRIFLUOROMETHYLPYRIMIDINE], the pIC50 was 5.96.

As to `CCOC(=O)c1cnc(-c2ccccc2)nc1NN1C(=O)C=C(C)C1=O` [Example 115], the pIC50 was 7.52.

On to `CCOC(=O)c1cnc(-c2ccccc2)nc1N(C)N1C(=O)C=C(C)C1=O` [Example 116, ETHYL-4-[N-(1'-AMINOCITRACONAMIDO)-N-METHYL]-2-PHENYLPYRIMIDINE-5-CARBOXYLATE], for which the pIC50 is 5.85.

With `CCOC(=O)c1cnc(-c2ccccc2)nc1N(C(C)=O)N1C(=O)C=C(C)C1=O` [Example 117, ETHYL 4-[N-ACETYL-N-(1'-AMINOCITRACONAMIDO)]-2-PHENYLPYRIMIDINE-5-CARBOXYLATE], the pIC50 was 5.40.

On to `CCOC(=O)c1cnc(C)nc1NN1C(=O)C=C(C)C1=O` [Example 118, ETHYL 4-[N-(1'-AMINOCITRACONAMIDO)]-2-METHYLPYRIMIDINE-5-CARBOXYLATE], for which the pIC50 is 4.77.

With `CCOC(=O)c1cnc(Cc2ccccc2)nc1NN1C(=O)C=C(C)C1=O` [Example 119, ETHYL 4-[N-(1'-AMINOCITRACONAMIDO)]-2-BENZYLPYRIMIDINE-5-CARBOXYLATE], the pIC50 was 5.15.

As to `CCOC(=O)c1cnc(-c2cccc([N+](=O)[O-])c2)nc1NN1C(=O)C=C(C)C1=O` [Example 120, ETHYL 4-[N-(1'-AMINOCITRACONAMIDO)]-2-(3'-NITROPHENYL)-PYRIMIDINE-5-CARBOXYLATE], the pIC50 was 5.10.

On to `CCOC(=O)c1cnc(-c2ccc(C(F)(F)F)cc2)nc1NN1C(=O)C=C(C)C1=O` [Example 121, ETHYL 4-[N-(1'-AMINOCITRACONAMIDO)]-2-(4'-TRIFLUOROMETHYLPHENYL)PYRIMIDINE-5-CARBOXYLATE], for which the pIC50 was 6.40.

As for `CCOC(=O)c1cnc(-c2cccs2)nc1NN1C(=O)C=C(C)C1=O` [Example 122, ETHYL 4-[N-(1'-AMINOCITRACONAMIDO)]-2-(2'-THIENYL)-PYRIMIDINE-5-CARBOXYLATE], the pIC50 is 7.70.

Regarding `CCOC(=O)c1cnc(-c2cccs2)nc1N(C)N1C(=O)C=C(C)C1=O` [Example 123, ETHYL 4-[N-(1'-AMINOCITRACONAMIDO)-N-METHYL]-2-(2'-THIENYL)-PYRIMIDINE-5-CARBOXYLATE], the pIC50 was 6.10.

Consider `CCOC(=O)c1cnc(Cc2ccc(Cl)c(Cl)c2)nc1NN1C(=O)C=C(C)C1=O` [Example 124, ETHYL 4-[N-(1'-AMINOCITRACONAMIDO)]-2-(3',4'-DICHLOROBENZYL)-PYRIMIDINE-5-CARBOXYLATE], for which the pIC50 is 5.40.

The values above are taken from patent publication US5935966A, “Pyrimidine carboxylates and related compounds and methods for treating inflammatory conditions” (Signal Pharmaceuticals, Inc., priority 1996, dated 1999).
